According to the NIST ThermoML archive (doi:10.1016/j.jct.2007.01.013):
± gives the expanded uncertainty stated by the source.

Columns and labels:
[1] = Liquid; for mass density: 101.33 kPa; for Normal boiling temperature: Distillation
[2] = refractive index (Na D-line) (dimensionless); conditions: 293.15 K; 101.33 kPa; Liquid; Standard Abbe refractometry

Structure (SMILES) | mass density ([1]; 298 K) | Normal boiling temperature [1] | refractive index [2] | mass density ([1]; 293.15 K)
CCOC(=O)CC [ethyl propanoate] | 884.35 ± 1 kg/m3 | 99.1 ± 0.2 °C | 1.38394 ± 0.0007 | –
COC(=O)c1ccccc1C(=O)OC [dimethyl 1,2-benzenedicarboxylate] | – | 283.6 ± 0.2 °C | 1.51384 ± 0.0007 | 1190.53 ± 1.5 kg/m3
CCCCOC(=O)c1ccccc1C(=O)OCCCC [dibutyl phthalate] | – | 340.1 ± 0.2 °C | 1.49114 ± 0.0007 | 1046.54 ± 0.79 kg/m3
